Laboratory results taken from US20050020501A1, “Methods of modulating the activity of mura” (SmithKline Beecham Corporation and SmithKline Beechm p.l.c., priority 2000, published 2005).
pKi: −log10 of the molar value. In brackets after ≈: the same amount, converted by molar mass. Entries after “also recorded” stand apart in the source; their conditions may differ. Where a name gives a salt, the structure may show the parent alone. Read-outs that look alike come from different tables or passages of the source.

Key:
[1] = biological target: T1, EPSP Synthase (S. pneumoniae) (Streptococcus pneumoniae serotype 4, UniProt Q9S400); assay: EPSPS kinetic assay, fluorescence coupled detection of inorganic phosphate release; format: biochemical; conditions: for Inhibition type vs. S3P / Inhibition type vs. PEP: EPSP synthase; for Inhibition type vs. S3P: varied substrate S3P; for Inhibition of EPSPS (in words): rosolic acid tested up to 2 mM; for Inhibition type vs. PEP: varied substrate PEP
T1 construct: made in house
T1 sequence (Q9S400 whole entry): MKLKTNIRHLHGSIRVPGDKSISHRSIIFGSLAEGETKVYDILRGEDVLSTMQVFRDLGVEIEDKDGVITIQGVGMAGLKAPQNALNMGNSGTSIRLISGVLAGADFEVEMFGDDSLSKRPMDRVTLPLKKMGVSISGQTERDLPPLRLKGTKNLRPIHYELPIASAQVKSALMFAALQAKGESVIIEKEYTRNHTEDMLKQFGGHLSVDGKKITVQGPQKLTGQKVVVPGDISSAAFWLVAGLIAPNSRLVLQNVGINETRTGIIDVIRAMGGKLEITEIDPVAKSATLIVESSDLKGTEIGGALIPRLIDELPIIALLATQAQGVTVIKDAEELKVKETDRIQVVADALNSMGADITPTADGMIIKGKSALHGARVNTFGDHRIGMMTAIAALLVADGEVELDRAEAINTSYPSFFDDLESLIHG
From the text: (§1) All chemicals including ATA and its salt forms are from Aldrich. SKF-26488-W3 was isolated as a high-throughput screen hit against EPSPS. Escherichia coli MurA (Marquardt, et al., J. Bacteriol., Vol. 174: 5748-5752 (1992)) and Streptococcus pneumoniae EPSPS (Du, et al., Eur. J. Biochem., Vol. 267: 222-227 (2000)) were expressed and purified as described previously.
(§2) The assays for both EPSPS and MurA are based on the detection of inorganic phosphate release. A fluorescence coupled assay was used for EPSPS and was performed in 100 mM HEPES, pH 7.0, 1 mM NH4Cl, 100 mM KCl. (Du, et al., Eur. J. Biochem., Vol. 267: 222-227 (2000)). MurA was assayed in 50 mM HEPES, pH 7.5, 1 mM DTI using the Malachite Green reagent (Lanzetta, et al., Anal. Biochem., Vol. 100: 95-97 (1979)). The Ki values were determined with fixed concentration of one substrate and varying concentrations of the other substrate and inhibitor. Data were analyzed using GraFit v4.09 (Erithacus Software Ltd.).

S. pneumoniae 100993 = assay: Antibacterial activity, minimum inhibitory concentration; format: cell-based, Streptococcus pneumoniae; conditions: for Antibacterial activity compared across media: TH media and minimal media with and without supplements; for Effect of adding aromatic amino acids and PABA on antibacterial activity in minimal media: minimal media with versus without aromatic amino acids and PABA
Description: The antibacterial activity of ATA against S.pneumoniae100993 was measured in Todd Hewitt media, minimal media, and minimal media+aromatic amino acids (100 mg/L) and p-aminobenzoic acid (PABA) (0.2 mg/L). Glyphosate, chloramphenical and ciprofloxacin were controls.

MurA (E. coli) = biological target: T2, MurA (E. coli) (Escherichia coli, UniProt P0A749); assay: MurA kinetic assay, Malachite Green detection of inorganic phosphate release; format: biochemical; conditions: for Inhibition type vs. PEP / pKi / Inhibition type vs. UDPAG: MurA
T2 construct: made in house
T2 sequence (P0A749 whole entry): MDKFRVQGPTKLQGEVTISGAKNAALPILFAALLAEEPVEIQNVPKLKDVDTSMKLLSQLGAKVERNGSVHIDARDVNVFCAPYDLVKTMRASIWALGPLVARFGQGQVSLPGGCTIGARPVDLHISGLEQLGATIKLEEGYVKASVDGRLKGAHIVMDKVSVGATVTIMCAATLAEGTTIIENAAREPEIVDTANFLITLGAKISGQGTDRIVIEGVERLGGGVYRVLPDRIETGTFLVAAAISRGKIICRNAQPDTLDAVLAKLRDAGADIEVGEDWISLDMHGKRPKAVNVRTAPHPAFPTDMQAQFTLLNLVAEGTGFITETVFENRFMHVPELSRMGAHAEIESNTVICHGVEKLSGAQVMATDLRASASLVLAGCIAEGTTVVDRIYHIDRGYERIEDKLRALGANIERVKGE
From the text: as §1, §2

[2] = Streptococcus pneumoniae, 100993, Chemically Defined Medium for Group A Streptococci without aromatic amino acids and PABA, read-out: Minimum Inhibitory Concentration, Minimal media
[3] = Streptococcus pneumoniae, 100993, JRH Strep media with aromatic amino acids and PABA, read-out: Minimum Inhibitory Concentration, Minimal media w/aa's + PABA
[4] = Streptococcus pneumoniae, 100993, Todd Hewitt broth, read-out: Minimum Inhibitory Concentration, TH
[5] = Streptococcus pneumoniae, 100993, read-out: Minimum Inhibitory Concentration, Minimal media
[6] = Streptococcus pneumoniae, 100993, read-out: Minimum Inhibitory Concentration, Minimal media w/aa's + PABA
[7] = Streptococcus pneumoniae, 100993, read-out: Minimum Inhibitory Concentration, TH

Q: How did the “Inhibition type vs. S3P” value [1] turn out when `N.N.N.O=C(O)C1=CC(=C(c2ccc(O)c(C(=O)O)c2)c2ccc(O)c(C(=O)O)c2)C=CC1=O` [ATA ammonium salt] was run?
A: competitive inhibitors vs. S3P

Q: And the “Inhibition of EPSPS (in words)” value [1]?
A: specific inhibitors of EPSPS

Q: For `O=C(O)C1=CC(=C(c2ccc(O)c(C(=O)O)c2)c2ccc(O)c(C(=O)O)c2)C=CC1=O` [ATA sodium salt], which “Inhibition type vs. S3P” value [1] is on record?
A: competitive inhibitors vs. S3P

Q: And the “Inhibition of EPSPS (in words)” value [1]?
A: specific inhibitors of EPSPS

Q: `O=C(N[C@H](CO)[C@H](O)c1ccc([N+](=O)[O-])cc1)C(Cl)Cl` [Chloramphenicol] was tested. Which MIC (S. pneumoniae 100993; [2]) did it give?
A: 2 µg/mL (≈ 6.19 µM)

Q: What about the MIC (S. pneumoniae 100993; [3]) of the same compound?
A: 2 µg/mL

Q: And the MIC (S. pneumoniae 100993; [4])?
A: 2 µg/mL (≈ 6.19 µM)

Q: And the “Antibacterial activity compared across media” value (S. pneumoniae 100993)?
A: substantially the same

Q: Which results are given for `O=C(O)c1cn(C2CC2)c2cc(N3CCNCC3)c(F)cc2c1=O` [Ciprofloxacin]?
A: MIC (S. pneumoniae 100993; [2]): 2 µg/mL (≈ 6.04 µM); MIC (S. pneumoniae 100993; [3]): 2 µg/mL; MIC (S. pneumoniae 100993; [4]): 2 µg/mL (≈ 6.04 µM); Antibacterial activity compared across media (S. pneumoniae 100993): substantially the same

Q: How did the MIC (S. pneumoniae 100993; [5]) turn out when `O=C(O)CNCP(=O)(O)O` [Glyphosate] was run?
A: 512 µg/mL (≈ 3030 µM)

Q: And the MIC (S. pneumoniae 100993; [6])?
A: > 512 µg/mL

Q: What about the MIC (S. pneumoniae 100993; [7]) of the same compound?
A: > 512 µg/mL

Q: And the “Antibacterial activity in TH media (in words)” value (S. pneumoniae 100993; TH media)?
A: no antibacterial activity

Q: And the “Effect of adding aromatic amino acids and PABA on antibacterial activity in minimal media” value (S. pneumoniae 100993)?
A: reversed

Q: For `O=C1C=CC(=C(c2ccc(O)cc2)c2ccc(O)cc2)C=C1` [Rosolic Acid], which “Inhibition type vs. PEP” value [1] is on record?
A: No inhibition (up to 2 mM)

Q: What about the “Inhibition type vs. S3P” value [1] of the same compound?
A: No inhibition (up to 2 mM)

Q: And the “Inhibition of EPSPS (in words)” value [1]?
A: does not inhibit EPSPS up to 2 mM

Q: What about the “Inhibition type vs. PEP” value (MurA (E. coli); varied substrate PEP) of the same compound?
A: Mixed type inhibition

Q: And the pKi (MurA (E. coli); varied substrate PEP, mixed type inhibition, second constant, read-out: Ki′ vs. PEP)?
A: 3.56

Q: What about the pKi (MurA (E. coli); varied substrate PEP, mixed type inhibition, read-out: Ki vs. PEP) of the same compound?
A: 4.96

Q: And the “Inhibition type vs. UDPAG” value (MurA (E. coli); varied substrate UDPAG)?
A: Competitive

Q: And the “Inhibition type vs. UDPAG” value (MurA (E. coli); varied substrate UDPAG, listed as RA)?
A: competitive vs UDPAG; also recorded: competitive inhibitor versus UDPAG, although a poor one

Q: What about the pKi (MurA (E. coli); varied substrate UDPAG, read-out: Ki vs. UDPAG) of the same compound?
A: 4.35

Q: For `O=C(O)C1=CC(=C(c2ccc(O)c(C(=O)O)c2)c2ccc(O)c(C(=O)O)c2)C=CC1=O` [Aurin Tricarboxylic Acid], which MIC (S. pneumoniae 100993; [5]) is on record?
A: 2 µg/mL (≈ 4.74 µM)

Q: And the MIC (S. pneumoniae 100993; [6])?
A: 4 µg/mL

Q: What about the MIC (S. pneumoniae 100993; [7]) of the same compound?
A: > 128 µg/mL

Q: And the “Activity in minimal media relative to TH media” value (S. pneumoniae 100993; minimal media versus TH media)?
A: more than 64 fold

Q: And the “Effect of adding aromatic amino acids and PABA on antibacterial activity in minimal media” value (S. pneumoniae 100993)?
A: not reversed

Q: And the “Inhibition type vs. PEP” value [1]?
A: Noncompetitive

Q: What about the “Inhibition type vs. S3P” value [1] of the same compound?
A: Competitive

Q: And the “Inhibition type vs. S3P” value ([1]; listed as aurin tricarboxylic acid)?
A: competitive inhibitors vs. S3P

Q: And the pKi ([1]; Ki vs. S3P, EPSPS, competitive vs. S3P, range given for ATA and its sodium and ammonium salts together)?
A: 5.35 to 5.55

Q: What about the “Potency against MurA relative to RA” value (MurA (E. coli); ATA versus RA, MurA from Escherichia coli) of the same compound?
A: ~200 fold

Q: What about the pKi (MurA (E. coli); Ki vs. UDPAG, varied substrate UDPAG) of the same compound?
A: 6.64

Q: What about the “Inhibition type vs. PEP” value (MurA (E. coli); varied substrate PEP) of the same compound?
A: Non-specific inhibition

Q: What about the “Inhibition type vs. UDPAG” value (MurA (E. coli); varied substrate UDPAG) of the same compound?
A: Competitive

Q: And the “Inhibition type vs. UDPAG” value (MurA (E. coli); varied substrate UDPAG, listed as ATA)?
A: competitive vs UDPAG

Q: What about the “Inhibition pattern of MurA versus both substrates (in words)” value (MurA (E. coli); versus UDPAG and PEP) of the same compound?
A: specific inhibition patterns versus both substrates

Q: For `O=C(O)C1=CC(=C(c2ccc(O)c(C(=O)O)c2)c2ccc(O)c(C(=O)O)c2)C=CC1=O` [SKB-26488-W3, aurin tricarboxylic acid], which “IC50 against EPSPS” value ([1]; high-throughput screening of EPSPS) is on record?
A: in the μM range
